In PMC6027051, “Polymer–Surfactant System Based Amorphous Solid Dispersion: Precipitation Inhibition and Bioavailability Enhancement of Itraconazole” (Pharmaceutics, 2018):
Values after ≈ are worked out from the molar mass of the structure shown. Like-named read-outs stand apart in the source and are kept apart here.

How the values were obtained:
Type in all cases: physicochemical
[1] = Equilibrium solubility of ITZ in SIF with or without surfactant (shaking flask method); details: for solubility thermodynamic at 48 h: 37 °C, n = 3, read-out: ITZ Concentration in SIF (equilibrium solubility)
Description: An excess amount of ITZ was added to SIF with or without pre-dissolved surfactant (1 mg/mL) and mixed by vortex for 2 min. After incubation in a shaking incubator at 37 °C for 48 h, the suspension was centrifuged (15,000 rpm for 10 min) and filtered through a 0.22 μm Millipore filter (Jinteng Experimental Equipment Co., Ltd, Tianjin, China). Prior to assay by high performance liquid (HPLC) (Shimadzu Corporation, Kyoto, Japan) using a PhenomenexC18 column (4.6 × 250 mm, 5 μm), the filtrate was diluted 1:1 with mobile phase. The mobile phase was consisted of 0.5% diisopropylamine in methanol and 0.1% ammonium acetate in distilled water (80:20) with a rate of 1.0 mL/min. The effluent was monitored at an ultraviolet-visible (UV) absorption wavelength of 263 nm. The retention time of ITZ under these conditions was 4.9 min. Calibration curve (Figure 1A) were linear over a concentration range of 0.04–40 μg/mL. The limit of quantitation (LOQ) and limit of detection (LOD) was 25 ng and 10 ng, respectively. Each equilibrium solubility test was performed in triplicate.

[2] = Supersaturation dissolution test with pH-shift (SGF to SIF, USP paddle method)
Description: In order to simulate the drug peristalsis in vivo situation, a transfer of simulated gastric fluid (SGF) to SIF was conducted for in vitro dissolution experiment. Supersaturation dissolution tests were performed according to USP 29 Apparatus 2 guidelines (paddle method) with a ZRS-8G dissolution tester (TDTF, Tianjin, China). Briefly, samples containing equivalent amounts of ITZ (45 mg) were subjected to each dissolution vessel containing SGF (750 mL of 0.1 N HCl) for 2 h, followed by pH adjustment to 6.8 by the addition of 250 mL of 0.2 M tribasic sodium phosphate (Na3PO4) for additional 3 h. The dissolution media was kept at 37.0 ± 0.5 °C and the paddle speed was maintained at 100 rpm throughout the test procedure. Aliquot samples (5 mL) were withdrawn at predetermined time intervals (120, 125, 150, 180, 240, and 300 min). The samples were filtered through a […] millipore filter and the first few drops were discarded. The filtrate was immediately diluted with methanol to prevent the precipitation. The ITZ concentration was assayed by ultraviolet spectrophotometry (TU-1901, Beijing Purkinje General Instrument Co., Ltd., Beijing, China) at a wavelength of 263 nm. The calibration curve of ITZ in UV spectrophotometry was shown in Figure 1B with a concentration range of 0.25–80 μg/mL. […]

[3] = Nucleation induction time measurement (turbidity at 490 nm, plate reader) in SIF; details: supersaturated ITZ solution by solvent shift (DMSO stock into SIF), absorbance 490 nm
Description: Supersaturation stability is commonly evaluated by measuring the induction time for nucleation, which is defined as the time lag for the appearance of the observable crystals. In this study, the precipitation induction time of different formulations were obtained by determining the changes in turbidity using plate reader detection technique. Supersaturated ITZ solutions were prepared by the solvent shift method. All the samples were dissolved in dimethyl sulfoxide (DMSO) to obtain ITZ stock solution at a concentration of 1mg/mL, then the stock solution was added into SIF and stirred constantly to generate a supersaturated solution. Immediately, 300 μL of individual supersaturated solution was transferred into a 96-well polypropylene plate and the optical density value of each well was measured at 490 nm using plate reader (Bio-Tek, Winooski, VT, USA). […] Thus, the turbidity was the only contributor to the changed absorbance. The samples were also shaken before the measurement and each formulation was detected in triplicate. All the analyses and calculations were carried out using Gen 5.0 (Bio-Tek, Winooski, VT, USA).

## CCC(C)n1ncn(-c2ccc(N3CCN(c4ccc(OCC5COC(Cn6cncn6)(c6ccc(Cl)cc6Cl)O5)cc4)CC3)cc2)c1=O (centres unmarked) [ITZ, Itraconazole]
[1]; SIF with Poloxamer 188 1 mg/mL, pH 6.8, SIF pH 6.8 with Poloxamer 188 1 mg/mL
  solubility thermodynamic at 48 h: 0.92 ± 0.27 µg/mL (≈ 1.3 µM)
[1]; SIF with SDS 1 mg/mL, pH 6.8, SIF pH 6.8 with SDS 1 mg/mL
  solubility thermodynamic at 48 h: 1.66 ± 0.53 µg/mL (≈ 2.35 µM)
[1]; SIF with Soluplus 1 mg/mL, pH 6.8, SIF pH 6.8 with Soluplus 1 mg/mL
  solubility thermodynamic at 48 h: 0.1 ± 0.06 µg/mL (≈ 0.142 µM)
[1]; SIF with TPGS 1 mg/mL, pH 6.8, SIF pH 6.8 with TPGS 1 mg/mL
  solubility thermodynamic at 48 h: 4.83 ± 0.81 µg/mL (≈ 6.84 µM)
[1]; SIF with TPGS vs SIF alone
  Increase of equilibrium solubility in the presence of TPGS over SIF: approximately 580 fold
[1]; SIF with Tween 80 1 mg/mL, pH 6.8, aqueous with cosolvent or surfactant or cyclodextrin, thermodynamic from solid, SIF pH 6.8 with Tween 80 1 mg/mL
  solubility thermodynamic at 48 h: 0.03 ± 0.01 µg/mL (≈ 0.0425 µM)
[1]; SIF with sodium cholate 1 mg/mL, pH 6.8, aqueous with cosolvent or surfactant or cyclodextrin, thermodynamic from solid, SIF pH 6.8 with Sodium cholate 1 mg/mL
  solubility thermodynamic at 48 h: 0.07 ± 0.02 µg/mL (≈ 0.0992 µM)
[1]; simulated intestinal fluid (SIF) without surfactant, pH 6.8, fassgf or other biorelevant, thermodynamic from solid, SIF pH 6.8 without surfactant (Blank group)
  solubility thermodynamic at 48 h: ~0.008 µg/mL (≈ 0.0113 µM)
[2]; SGF (0.1 N HCl), 120 min, 37 °C, 45 mg ITZ
  ITZ released after 2 h in SGF: 3%
[2]; SIF pH 6.8, precipitation from five minutes after the pH change
  Cumulative release amount after pH change to 6.8 (rapid precipitation, eventually dropped to): < 1%
[3]
  Turbidity / precipitation behaviour in the absorbance-time curve: rapid increase in the absorbance followed by a gradual decline
